From patent US20200038410A1, “METHODS FOR TREATING NEUROPATHY” (Loyola University Chicago, priority 2018, published 2020)

What was measured:
[1] = system: DRG primary neuronal cultures; test: Palmitate-induced ER stress markers and lpcat3 mRNA in DRG primary neuronal cultures; assay type: cell-based, mice; conditions: DRG neurons stimulated by LXR agonist; FIG. 1G
Source text: (§1) FIG. 1A is a chart representing distribution of nuclear receptor mRNA in the whole DRG. Normalized mRNA expression levels were defined as Absent if the Ct value was greater than 40, Low if the level was […] arbitrary units, Moderate if the level was between 0.025 and 0.25, and High if the level was greater than 0.25 arbitrary units. […] FIGS. 1D and 1F represent data of protein levels of CHOP, an ER stress marker, in DRG of mice fed western diet (WD) compared to normal chow (NC) (FIG. 1D, n=10 DRG/group), and in ex vivo organotypic whole DRG cultures treated with palmitate and LXR agonist (FIG. 1F, n=individual experiments in triplicate). FIGS. 1C, 1E, and 1G represent data of mRNA levels of ER stress markers using 18S to normalize, in DRG of WD and NC fed mice (FIG. 1C, n=4 mice/group), in organotypic whole DRG cultures (FIG. 1E), and in primary neuronal culture of DRG neurons treated with LXR agonist and palmitate (FIG. 1G, n=5 individual experiments). (All values are Mean±S.E.M, with vehicle group defined as 100%; *p<0.05 with vehicle; **p<0.05 with vehicle+palmitate).
Previous research has shown that LXRs could be involved in the regulation of organelles/membrane phospholipid composition by regulating the expression of LPCAT3 (lysophospholipid acyltransferase).

[2] = system: organotypic DRG cultures; test: Palmitate-induced ER stress markers (mRNA) in organotypic whole DRG cultures; assay type: cell-based, mice; conditions: palmitate treated organotypic DRG cultures, compared to vehicle; FIG. 1E
Source text: as §1
ER stress has been identified as a potential culprit underlying type 1 and type 2 diabetes. Increased expression of the ER stress marker CHOP was reported in metabolic tissues of diabetic mice, while targeted disruption of CHOP gene delayed the onset of diabetes. […]

[3] = system: DRG of WD-fed mice; test: ER stress marker (UPR target gene) mRNA in DRG of WD-fed mice treated with agonist; assay type: in vivo; conditions: 25 mg/kg i.p. twice a week for three weeks, FIG. 2D
Source text: End point levels of serum triglycerides (FIG. 2B), cholesterol (FIG. 2C), in mice fed NC or WD treated with agonist. FIG. 2D represents mRNA levels of ER stress markers normalized to 18S in DRG of NC or WD-fed mice treated with LXR agonist. (n=4 mice/group; all values are Mean±S.E.M; for mRNA relative levels were plotted with NC-vehicle group defined as 100%; *p<0.05 with NC-Veh; **p<0.05 with WD-Veh). The above data linking LXR and ER stress in DRG led the inventors to assess whether activation of LXRs could change the WD-induced allodynia. WT mice were fed either NC or WD for a total of twelve weeks after weaning, while assessing the onset and progression of allodynia. […] Weight-matched mice on either diet were treated for three weeks with either GW3965 (25 mg/kg body weight; twice a week by i.p.) or vehicle after eight weeks of WD diet (twelve weeks of age). As activation of LXRs elevated triglyceride levels in liver and plasma, the dosage of LXR agonist was adjusted to minimize the increase of triglyceride and cholesterol (FIGS. 2B and 2C). Sensitivity of mice to innocuous stimuli was evaluated over the duration of GW3965 treatment. […] Then, the expression of UPR target genes in DRG of NC- or WD-fed mice treated with vehicle or GW3965 was compared.

[4] = system: WD-fed mice; test: Western diet-induced allodynia, von Frey test; assay type: in vivo; conditions: 25 mg/kg i.p. twice a week for three weeks after eight weeks of WD, compared to WD vehicle, FIG. 2A
Source text: End point levels of serum triglycerides (FIG. 2B), cholesterol (FIG. 2C), in mice fed NC or WD treated with agonist. FIG. 2D represents mRNA levels of ER stress markers normalized to 18S in DRG of NC or WD-fed mice treated with LXR agonist. (n=4 mice/group; all values are Mean±S.E.M; for mRNA relative levels were plotted with NC-vehicle group defined as 100%; *p<0.05 with NC-Veh; **p<0.05 with WD-Veh). The mechanical hypersensitivity observed early in peripheral neuropathy is believed to be associated with metabolic syndrome and independent of diabetes. […] The von Frey test was performed and measured phasic response frequency to calculate the 50% threshold in WD and NC-fed mice. […] The above data linking LXR and ER stress in DRG led the inventors to assess whether activation of LXRs could change the WD-induced allodynia. WT mice were fed either NC or WD for a total of twelve weeks after weaning, while assessing the onset and progression of allodynia. […] Weight-matched mice on either diet were treated for three weeks with either GW3965 (25 mg/kg body weight; twice a week by i.p.) or vehicle after eight weeks of WD diet (twelve weeks of age). […] Sensitivity of mice to innocuous stimuli was evaluated over the duration of GW3965 treatment. […]

[5] = system: LXRs in organotypic cultures of DRG; test: LXR target gene expression (ABCA1) in organotypic cultures of DRG; assay type: cell-based, mice; conditions: organotypic cultures of DRG stimulated with GW3965; FIG. 1B
Source text: as §1, with “vehicle+palmitate). […]” for “vehicle+palmitate).”

[6] = system: Nav1.8 expressing neurons of the DRG; test: ER stress marker mRNA in Nav1.8 expressing sensory neurons (RiboTag IP) of DRG organotypic cultures treated with palmitate; assay type: cell-based, mice; conditions: Nav1.8 sensory neuron specific mRNA from DRG organotypic cultures, FIG. 3F
Source text: FIGS. 3A through 3F include charts and images representing that an LXR agonist decreased lipid-induced ER stress in DRG neurons expressing Nav1.8. […] FIG. 3B represents the generation of tissue specific RiboTag mouse. Sensory neuron specific (Nav1.8) Cre mice were utilized to generate Ribotag-Nav1.8-Cre mice. FIG. 3C represents data from western blots on whole DRG of RiboTag-Nav1.8-Cre mice after immunoprecipitation for HA. FIG. 3D represents data from immunohistochemistry on DRG slices for HA in sensory neurons (in green—HA, blue—DAPI/nuclei). FIG. 3E represents actin normalized mRNA levels of positive (Nav1.8) and negative (GFAP, PV) markers of Nav1.8 expressing neurons in whole DRG (WT), input, and IP samples. FIG. 3F represents actin normalized mRNA levels of ER stress markers, in sensory neurons treated with LXR agonist and palmitate. Sensory neuron specific mRNA was isolated by immunoprecipitation from whole DRG organotypic cultures treated with agonist and palmitate (n=3 individual experiments). (Values are Mean±S.E.M, with vehicle group defined as 100%; *p<0.05 with vehicle; **p<0.05 with vehicle+palmitate). […] The mRNA levels of ER stress markers undergoing translation were analyzed in Nav1.8 expressing neurons. […]

[7] = system: 80-week old mice presenting signs of neuropathy; test: Intra epidermal nerve fibers density in paw skin of 80-week old mice with neuropathy; assay type: in vivo; conditions: gavaged twice a week for three months, skin of paws, FIG. 6
Source text: FIG. 6 is a bar chart evidencing that treatments with a mixed solution of butyrate and an LXR agonist (GW3965) trigger an enhanced regeneration mechanism that improves neuropathy.
In an additional investigation, 80-week old mice presenting signs of neuropathy (loss of fibers in the skin) were gavaged twice a week during a three-month period with a GW3965 solution or a mixed solution of GW3965 and butyrate using the indicated concentrations reported in FIG. 6. After three months, the mice were euthanized and the intra epidermal nerve fibers density was counted in the skin of their paws.

LXR canonical gene expression, ATP-binding cassette transporter (ABCA1) [5]: significant increase
SMILES: O=C(O)Cc1cccc(OCCCN(Cc2cccc(C(F)(F)F)c2Cl)CC(c2ccccc2)c2ccccc2)c1 [GW3965]
lpcat3 mRNA [1]: significant increase
mRNA levels of ER stress markers [2]: decreased
expression of ER stress markers in DRG [3]: decreased expression of ER stress markers
progression of WD-induced allodynia (von Frey sensitivity to innocuous stimuli) [4]: delay in the progression of WD-induced allodynia
CHOP, ATF4, and sXBP1 mRNA levels increased by palmitate [6]: blunted
number of nerves (intra epidermal nerve fibers density) [7]: increased the number the nerves
